# Patent US20240294541A1, “COMPOUNDS CONSTITUTING C20-MODIFIED SALINOMYCIN DERIVATIVES, A METHOD FOR OBTAINING THE SAME, A COMPOSITION CONTAINING THE SAME AND A USE OF SAID COMPOUNDS” (FILECLO SPOLKA Z OGRANICZONA ODPOWIEDZIALNOSCIA, priority 2021, published 2024)
# Where two headings read alike, the source gives them in different places.
# Key:
# Format in all cases: cell-based
# [1] = test system: MIA PaCa-2 (human pancreatic cancer); experiment: cells; details: for IC50: Homo sapiens, MIA PaCa-2, 72 h with compound, SRB, n/a = non-active compound, read-out: MIA PaCa-2 IC50; for MIA PaCa-2 SI: selectivity coefficient vs normal BALB/3T3 cells
# [2] = test system: A375 (human melanoma); experiment: In vitro cytotoxicity, SRB assay, A375; details: for IC50: Homo sapiens; for A375 SI: selectivity coefficient vs normal BALB/3T3 cells
# [3] = test system: SNU-16 (human gastric cancer); experiment: cells; details: for IC50: Homo sapiens, SNU-16, 72 h with compound, MTT, n/a = non-active compound, read-out: SNU-16 IC50; for SNU-16 SI: selectivity coefficient vs normal BALB/3T3 cells
# [4] = test system: A2780 (human ovarian cancer); experiment: In vitro cytotoxicity, SRB assay, A2780; details: for IC50: Homo sapiens; for A2780 SI: selectivity coefficient vs normal BALB/3T3 cells
# [5] = test system: BALB/3T3 (normal mouse fibroblasts); experiment: In vitro cytotoxicity, SRB assay, normal BALB/3T3 fibroblasts
# [6] = test system: PLC/PRF/5 (human liver cancer); experiment: cells; details: for IC50: Homo sapiens, PLC-PRF-5, 72 h with compound, SRB, n/a = non-active compound, read-out: PLC/PRF/5 IC50; for PLC/PRF/5 SI: selectivity coefficient vs normal BALB/3T3 cells
# [7] = test system: Hs294T (human melanoma); experiment: cells; details: for IC50: Homo sapiens, Hs 294T, 72 h with compound, SRB, n/a = non-active compound, read-out: Hs294T IC50; for Hs294T SI: selectivity coefficient vs normal BALB/3T3 cells
# [8] = test system: NCI-H23 (human lung cancer); experiment: In vitro cytotoxicity, SRB assay, NCI-H23; details: for IC50: Homo sapiens; for NCI-H23 SI: selectivity coefficient vs normal BALB/3T3 cells
# [9] = test system: PFSK-1 (malignant primitive neuroectodermal tumour); experiment: In vitro cytotoxicity, SRB assay, PFSK-1; details: for IC50: Homo sapiens; for PFSK-1 SI: selectivity coefficient vs normal BALB/3T3 cells
# [10] = test system: A2780Cis (cisplatin-resistant human ovarian cancer); experiment: In vitro cytotoxicity, SRB assay, A2780Cis; details: for IC50: Homo sapiens, A2780cis
# [11] = test system: cancer cells; experiment: In vitro cytotoxic activity on the panel of cancer cell lines (MTT/SRB), general statements; details: Tables 3.1, 3.2, 4 and 5; parent compound salinomycin
# [12] = test system: KG-1 (human acute myeloid leukaemia); experiment: In vitro cytotoxicity, MTT assay, KG-1; details: for IC50: Homo sapiens, 72 h with compound, MTT, n/a = non-active compound; for KG-1 SI: selectivity coefficient vs normal BALB/3T3 cells
# [13] = test system: MV-4-11 (human biphenotypic leukaemia); experiment: In vitro cytotoxicity, MTT assay, MV-4-11; details: for IC50: Homo sapiens, MV4-11, read-out: IC50 (nM) MV4-11
# [14] = A-375, 72 h with compound, SRB, n/a = non-active compound, read-out: A375 IC50
# [15] = A2780, 72 h with compound, SRB, n/a = non-active compound, read-out: A2780 IC50
# [16] = Mus musculus, BALB/3T3, normal cells, 72 h with compound, SRB, n/a = non-active compound, read-out: BALB/3T3 IC50
# [17] = NCI-H23, 72 h with compound, SRB, n/a = non-active compound, read-out: NCI-H23 IC50
# [18] = PFSK-1, 72 h with compound, SRB, n/a = non-active compound, read-out: PFSK-1 IC50
# [19] = 72 h, read-out: A2780Cis IC50 (nM)
# [20] = Table 5, BALB/3T3 normal mouse fibroblasts, read-out: IC50 (nM) BALB3T3 normal cells
structure (smiles),measurement,setting,value
CC[C@@H](C(=O)[C@@H](C)[C@@H](O)[C@H](C)[C@@H]1O[C@@H]([C@@H](CC)C(=O)O)CC[C@@H]1C)[C@H]1O[C@]2(C=C[C@@H](NC(=O)NC3CCC3)[C@]3(CC[C@@](C)([C@H]4CC[C@](O)(CC)[C@H](C)O4)O3)O2)[C@H](C)C[C@@H]1C [FLC-00341-1 Na],IC50,[1],55.4 nM
same,MIA PaCa-2 SI,[1],1.7
same,IC50,[2]; [14],293 nM
same,A375 SI,[2],0.3
same,IC50,[3],27.1 nM
same,SNU-16 SI,[3],3.5
same,IC50,[4]; [15],1.62 nM
same,A2780 SI,[4],59.2
same,IC50,[5]; [16],96.2 nM
same,IC50,[6],54.5 nM
same,PLC/PRF/5 SI,[6],1.8
same,IC50,[7],1640 nM
same,Hs294T SI,[7],0.1
same,IC50,[8]; [17],318 nM
same,NCI-H23 SI,[8],0.3
same,IC50,[9]; [18],51.6 nM
same,PFSK-1 SI,[9],1.9
same,A2780Cis RI,[10],0.8
same,A2780Cis SI,[10],73.9
same,IC50,[10]; [19],1.3 nM
same,anti-proliferative effect compared to that of the parent compound,[11],several times more potent compared to that of the parent compound
same,IC50,[12],45.9 nM
same,KG-1 SI,[12],2.1
CC[C@@H](C(=O)[C@@H](C)[C@@H](O)[C@H](C)[C@@H]1O[C@@H]([C@@H](CC)C(=O)O)CC[C@@H]1C)[C@H]1O[C@]2(C=C[C@@H](NC(=S)NCCCSC)[C@]3(CC[C@@](C)([C@H]4CC[C@](O)(CC)[C@H](C)O4)O3)O2)[C@H](C)C[C@@H]1C [FLC-00345-1],IC50,[1],111 nM
same,MIA PaCa-2 SI,[1],0.6
same,IC50,[2]; [14],400 nM
same,A375 SI,[2],0.2
same,IC50,[3],26 nM
same,SNU-16 SI,[3],2.6
same,IC50,[4]; [15],0.84 nM
same,A2780 SI,[4],81.2
same,IC50,[5]; [16],68.4 nM
same,IC50,[6],28 nM
same,PLC/PRF/5 SI,[6],2.4
same,IC50,[7],396 nM
same,Hs294T SI,[7],0.2
same,IC50,[8]; [17],46.5 nM
same,NCI-H23 SI,[8],1.5
same,IC50,[9]; [18],12.3 nM
same,PFSK-1 SI,[9],5.6
same,A2780Cis RI,[10],0.8
same,A2780Cis SI,[10],96.6
same,IC50,[10]; [19],0.71 nM
same,anti-proliferative effect compared to that of the parent compound,[11],several times more potent compared to that of the parent compound
same,IC50,[12],39.2 nM
same,KG-1 SI,[12],1.7
CC[C@@H](C(=O)[C@@H](C)[C@@H](O)[C@H](C)[C@@H]1O[C@@H]([C@@H](CC)C(=O)O)CC[C@@H]1C)[C@H]1O[C@]2(C=C[C@@H](NC(=S)NCc3ccccc3)[C@]3(CC[C@@](C)([C@H]4CC[C@](O)(CC)[C@H](C)O4)O3)O2)[C@H](C)C[C@@H]1C [FLC-00346-1],IC50,[1],43.3 nM
same,MIA PaCa-2 SI,[1],1.6
same,IC50,"[2]; A-375, 72 h, read-out: A375 IC50 (nM)",393 nM
same,A375 SI,[2],0.2
same,IC50,[3],4.52 nM
same,SNU-16 SI,[3],15.2
same,IC50,"[4]; A2780, 72 h, read-out: A2780 IC50 (nM)",0.71 nM
same,A2780 SI,[4],96.4
same,IC50,[5]; [16],68.8 nM
same,IC50,[6],5.8 nM
same,PLC/PRF/5 SI,[6],11.9
same,IC50,[7],388 nM
same,Hs294T SI,[7],0.2
same,IC50,"[8]; NCI-H23, 72 h, read-out: NCI-H23 IC50 (nM)",60.3 nM
same,NCI-H23 SI,[8],1.1
same,IC50,"[9]; PFSK-1, 72 h, read-out: PFSK-1 IC50 (nM)",25.1 nM
same,PFSK-1 SI,[9],2.7
same,A2780Cis RI,[10],0.2
same,A2780Cis SI,[10],487.1
same,IC50,[10]; [19],0.14 nM
same,anti-proliferative effect compared to that of the parent compound,[11],several times more potent compared to that of the parent compound
same,IC50,[12],20.9 nM
same,KG-1 SI,[12],3.3
CC[C@@H](C(=O)[C@@H](C)[C@@H](O)[C@H](C)[C@@H]1O[C@@H]([C@@H](CC)C(=O)O)CC[C@@H]1C)[C@H]1O[C@]2(C=C[C@@H](NC(=S)Nc3ccc(C(F)(F)F)cc3)[C@]3(CC[C@@](C)([C@H]4CC[C@](O)(CC)[C@H](C)O4)O3)O2)[C@H](C)C[C@@H]1C [FLC-00347-1],IC50,[1],44.3 nM
same,MIA PaCa-2 SI,[1],1.7
same,IC50,[2]; [14],91.2 nM
same,A375 SI,[2],0.8
same,IC50,[3],13.5 nM
same,SNU-16 SI,[3],5.4
same,IC50,[4]; [15],0.93 nM
same,A2780 SI,[4],79.0
same,IC50,[5]; [16],73.2 nM
same,IC50,[6],5.87 nM
same,PLC/PRF/5 SI,[6],12.5
same,IC50,[7],103 nM
same,Hs294T SI,[7],0.7
same,IC50,[8]; [17],5.51 nM
same,NCI-H23 SI,[8],13.3
same,IC50,[9]; [18],4.54 nM
same,PFSK-1 SI,[9],16.1
same,A2780Cis RI,[10],0.3
same,A2780Cis SI,[10],264.7
same,IC50,[10]; [19],0.28 nM
same,anti-proliferative effect compared to that of the parent compound,[11],several times more potent compared to that of the parent compound
same,IC50,[12],14.1 nM
same,KG-1 SI,[12],5.2
CC[C@@H](C(=O)[C@@H](C)[C@@H](O)[C@H](C)[C@@H]1O[C@@H]([C@@H](CC)C(=O)O)CC[C@@H]1C)[C@H]1O[C@]2(C=C[C@@H](NS(=O)(=O)c3c(C)noc3C)[C@]3(CC[C@@](C)([C@H]4CC[C@](O)(CC)[C@H](C)O4)O3)O2)[C@H](C)C[C@@H]1C [FLC-00506-1•Na],IC50,[5]; [20],92.5 nM
same,SI A2780Cis,[10],100.3
same,IC50,[10]; read-out: IC50 (nM) A2780Cis,0.92 nM
same,anti-proliferative effect compared to that of the parent compound,[11],several times more potent compared to that of the parent compound
same,SI MV4-11,[13],35.3
same,IC50,[13],2.62 nM
CC[C@@H](C(=O)[C@@H](C)[C@@H](O)[C@H](C)[C@@H]1O[C@@H]([C@@H](CC)C(=O)O)CC[C@@H]1C)[C@H]1O[C@]2(C=C[C@@H](NC(=O)NC(C)(C)C)[C@]3(CC[C@@](C)([C@H]4CC[C@](O)(CC)[C@H](C)O4)O3)O2)[C@H](C)C[C@@H]1C [FLC-00593-1•Na],IC50,[5]; [20],72.2 nM
same,SI A2780Cis,[10],≈7220
same,IC50,[10]; read-out: IC50 (nM) A2780Cis,< 0.01 nM
same,anti-proliferative effect compared to that of the parent compound,[11],several times more potent compared to that of the parent compound
same,SI MV4-11,[13],≈7220
same,IC50,[13],< 0.01 nM
CC[C@@H](C(=O)[C@@H](C)[C@@H](O)[C@H](C)[C@@H]1O[C@@H]([C@@H](CC)C(=O)O)CC[C@@H]1C)[C@H]1O[C@]2(C=C[C@@H](NC(=O)N[C@@H](C)C(C)(C)C)[C@]3(CC[C@@](C)([C@H]4CC[C@](O)(CC)[C@H](C)O4)O3)O2)[C@H](C)C[C@@H]1C [FLC-00606-1•Na],IC50,[5]; [20],52.4 nM
same,SI A2780Cis,[10],≈5240
same,IC50,[10]; read-out: IC50 (nM) A2780Cis,< 0.01 nM
same,anti-proliferative effect compared to that of the parent compound,[11],several times more potent compared to that of the parent compound
same,SI MV4-11,[13],≈5240
same,IC50,[13],< 0.01 nM
CCC(CC)NC(=S)N[C@@H]1C=C[C@]2(O[C@H]([C@@H](CC)C(=O)[C@@H](C)[C@@H](O)[C@H](C)[C@@H]3O[C@@H]([C@@H](CC)C(=O)O)CC[C@@H]3C)[C@@H](C)C[C@H]2C)O[C@@]12CC[C@@](C)([C@H]1CC[C@](O)(CC)[C@H](C)O1)O2 [FLC-00771-1•Na],IC50,[5]; [20],80 nM
same,SI A2780Cis,[10],≈8000
same,IC50,[10]; read-out: IC50 (nM) A2780Cis,< 0.01 nM
same,anti-proliferative effect compared to that of the parent compound,[11],several times more potent compared to that of the parent compound
same,SI MV4-11,[13],≈8000
same,IC50,[13],< 0.01 nM
